The source of these data is PMC3095640, “Potent Host-Directed Small-Molecule Inhibitors of Myxovirus RNA-Dependent RNA-Polymerases” (PLoS ONE, 2011).

Series [1] can be described thus: Cytotoxicity (metabolic activity), HeLa. Format: cell-based. The settings on record: human, HeLa cells, highest concentration assessed 75 µM. As to the method: (§1) A non-radioactive cytotoxicity assay (CytoTox 96 Non-Radioactive Cytotoxicity Assay, Promega) was employed to determine the metabolic activity of cell after exposure to the compound. In a 96-well plate format, 10,000 cells per well were incubated at 37°C for 24 hours in four replicates per concentration tested in the presence of compound in two-fold dilutions starting at 75 µM. Substrate was then added and color development measured at 490 nm using a BioRad plate reader. Values were calculated according to the formula [% toxicity = 100−((experimental-background)/(maximum(vehicle treated)-background)*100)]. Values were plotted in dose-response curves and, if applicable, CC50 concentrations calculated.

The subject of series [2] is para- and orthomyxovirus family members. The series can be described thus: organism not typed. Format: cell-based.
The subject of a further series is HeLa cells. The series can be described thus: Flow-cytometric analysis of cell cycle progression. Particulars: JMN3-003 10 µM 36 hours, nocodazole 200 ng/ml. Format: cell-based, human. Here is the method: Actively proliferating HeLa cells were exposed to JMN3-003 (10 µM), hydroxyurea (4 mM), or nocodazole (200 ng/ml) for 36 hours, followed by resuspension in buffer I (20 mM citrate/PO, pH 3.0, 0.1 mM EDTA, 0.2 M Sucrose, 0.1% Triton X-100) and staining in buffer II (10 mM Citrate/PO, pH 3.8, 0.1 M sodium chloride, 20 µg/ml acridine orange) as described. Green fluorescence at 525 nm resulting from DNA intercalating acridine orange was then measured using a BD LSRII flow cytometer and FlowJo software (Tree Star) for data analysis. For comparison, unstained and stained, solvent-only exposed cells were examined in parallel.

Series [3] concerns bronchial epithelial cells. Nature of the series: Metabolic activity of primary human bronchial epithelial cells. It counts as cell-based. Particulars: 24 hours exposure. As to the method: as §1
Series [4] is described as follows: Cytotoxicity (metabolic activity), BHK-21. The settings on record: Syrian hamster, BHK-21 cells, highest concentration assessed 75 µM. It counts as cell-based, Rodent-Syrian hamster. As to the method: as §1
Series [5] concerns MeV-Alaska. The series can be described thus: Cell priming: pre-treatment, wash-out, then MeV-Alaska infection. Particulars: 1.0 µM for 60 minutes. Format: cell-based, measles virus.
A further series concerns MeV (Alaska). Nature of the series: microbe, parasite or virus in culture. The settings on record: Measles morbillivirus. Format: cell-based, measles virus isolate MVi/Alaska.USA/16.00.
Another series concerns MeV-Alaska particles. Nature of the series: Virus pre-incubation (virucidal activity) assay. It counts as cell-based, measles virus. The settings on record: 1.0 µM for 60 minutes, diluted to 1.0 nM.
A further series deals with Influenza A/PR/8/34. Nature of the series: Virus yield reduction assay, influenza A/PR/8/34. It counts as cell-based, influenza A strain PR8/34 (H1N1). The settings on record: genome copy numbers of released progeny particles by TaqMan RT-PCR. On the technique in general: Real-time PCR tracks product formation cycle by cycle.
Series [6] in a line: Cytotoxicity (metabolic activity), HT1080. Format: cell-based. The settings on record: human, HT1080 cells, highest concentration assessed 75 µM. As to the method:
as §1

For another series, the system named is Influenza A/WSN. Nature of the series: Immunodetection of virus-encoded influenza A/WSN M2. It counts as cell-based. The settings on record: 100 nM. As to the method:
Aliquots with equal total concentrations of cleared lysates (20,000×g; 10 min; 4°C) were mixed with 2x-urea buffer (200 mM Tris, pH 6.8; 8 M urea; 5% sodium dodecyl sulfate (SDS); 0.1 mM EDTA; 0.03% bromphenol blue; 1.5% dithiothreitol) and denatured for 25 min at 50°C. Samples were then fractionated on 10% SDS-polyacrylamide gels, blotted to polyvinylidene difluoride (PVDF) membranes (Millipore) and subjected to enhanced chemiluminescence detection (Pierce) using specific antisera directed against phosphorylated or non-phosphorylated cdc2-cyclin B kinase (Cell Signaling Technology), GAPDH (Abcam), the cytosolic tail of the MeV F protein [81], or influenza A/WSN virus M2 (Thermo Scientific). Immunostained PVDF membranes were developed using a ChemiDoc XRS digital imaging system (Bio-Rad) and horseradish peroxidase conjugated anti-species IgG (mouse or rabbit) antibodies. For densitometry, signals were quantified using the QuantityOne software package (Bio-Rad).

Series [7] can be described thus: Cytotoxicity (metabolic activity), NIH-3T3. The settings on record: mouse, NIH-3T3 cells, highest concentration assessed 75 µM. Format: cell-based, Rodent-mouse. As to the method: as §1
Series [8] is described as follows: Cytotoxicity (metabolic activity), CHO. Format: cell-based, Rodent-Chinese hamster. The settings on record: Chinese hamster, CHO cells, highest concentration assessed 75 µM. As to the method:
as §1

Another series concerns SOI Influenza A/Texas. The series can be described thus: Virus yield reduction assay, SOI influenza A/Texas. Format: cell-based, swine-origin influenza virus isolate S-OIV Texas. The settings on record: genome copy numbers of released progeny particles by TaqMan RT-PCR.
For the next series, the system named is SOI Influenza A/Mexico. Nature of the series: Virus yield reduction assay, SOI influenza A/Mexico. It counts as cell-based, swine-origin influenza virus isolate S-OIV Mexico. The settings on record: genome copy numbers of released progeny particles by TaqMan RT-PCR.
The subject of the next series is vaccinia virus. It counts as cell-based. The settings on record: compared with activity against myxoviruses.
Series [9] has as its system MeV-Alaska. Nature of the series: Immunodetection of virus-encoded MeV-F. Format: cell-based, measles virus. Particulars: 100 nM.
A short description of series [10]: Metabolic stability in human liver S9 fractions. It counts as in vitro ADME. Here is the method: JMN3-003 was mixed with liver S9 fractions (protein concentration 2.5 mg/ml) from pooled mixed gender humans (XenoTech) at a final concentration of 1 µM and reactions initiated by the addition of cofactors (1.14 mM NADPH, 1.43 mM glucose-6-phosphate, 1.43 mM uridine 5′-diphosphoglucuronic acid, 9.42 mM potassium chloride, 2.28 mM magnesium chloride) in 100 mM potassium phosphate buffer, pH 7.4. Samples were incubated at 37°C with mixing, aliquots removed after 0, 15, 30 and 60 minutes and subjected to reversed-phase LC-MS/MS (Applied Biosystems API 4000 QTRAP with heated nebulizer; Turbo IonSpray for JMN5-166) analysis. Peak areas were measured to calculate half life and percent of input compound remaining according to the formulas t1/2 = (−0.693/slope of linear regression analysis of log transformed peak area versus) and % input remaining = (peak area of test compound at tx/peak area of test compound at t0)*100. Positive controls to assess the metabolic competency of the liver S9 fractions were 7-Ethoxycoumarin, Propranolol, and Verapamil (Sigma), which were analyzed in parallel to the article. […] Aliquots were removed at distinct time points as indicated and analyzed by LC-MS/MS with detection of the compound at 254 nm. Values are expressed as percent of compound remaining at each time relative to the amount of that compound present at the starting time point.

Where two headings read alike, the source gives them in different places.

For orientation: CC50 means the concentration giving 50% cytotoxicity. A lower CC50 goes with harm at low concentration. As to `COc1ccc(-n2c(SC(C)C(=O)Nc3ccc(C)cc3Cl)nc3ccccc32)cc1` (stereo not shown) [JMN3-003], the CC50 at 24 h in series [1], in series [4], in series [6], in series [7] and in series [8] was more than 75 µM each time. The EC50 was 0.01 to 0.08 µM in [2] (range depending on the target virus, read-out: active concentrations (anti-myxovirus activity)); approximately 0.04 µM in series [2] (unidentified influenza virus, read-out: average EC50 concentrations); 0.09 ± 0.05 µM in the series on MeV (Alaska) (PBMC, hPBMC from a mixed pool of healthy donors, four-parameter non-linear regression, read-out: EC50, MeV-Alaska grown on human PBMCs); 0.03 ± 0.02 µM with MeV (Alaska) (read-out: EC50, MeV (Alaska)); 0.04 ± 0.02 µM with MeV (Alaska) (Vero-Slam, comparison curve of figure 2, read-out: EC50, MeV-Alaska grown on Vero-Slam cells); 0.01 ± 0.001 µM in the series with Influenza A/PR/8/34. Also, the EC50 in the series on SOI Influenza A/Texas turned out to be 0.04 ± 0.01 µM; with SOI Influenza A/Mexico, 0.01 ± 0.003 µM. The “DNA content of treated cells by flow cytometry” value with HeLa cells is recorded as “accumulation of cells in a single population with 2N DNA content”. The “metabolic activity of primary human bronchial epithelial cells” value in series [3] is on record as “only slightly affected”. In addition, in the series with MeV-Alaska [5], the “inhibitory effect after cell pre-treatment and wash-out” value is reported as “could not detect any substantial inhibitory effect”. Further, the “antiviral effect of preincubation of viral particles (virucidal activity)” value in the series on MeV-Alaska particles is “lacked any appreciable antiviral effect”. In addition, the “expression of virus-encoded proteins, orthomyxovirus infection” value in the series with Influenza A/WSN is reported as “fully blocked”. For the same molecule, in the series on vaccinia virus, the “activity against vaccinia virus” value is on record as “to a lesser degree”. Moreover, the “expression of virus-encoded proteins, paramyxovirus infection” value in the series on MeV-Alaska [9] is listed as “fully blocked”. For the same molecule, the half-life at 1 µM in [10] (both sexes, human, liver S9 fractions, pH 7.4, human liver S9 fractions, up to 60 minutes, LC-MS/MS, calculated/extrapolated, read-out: half-life (t1/2)) was approximately 3.33 h. For the same molecule, the “input material remaining intact” value in series [10] (human S-9 fractions, 60-minute exposure, 1 µM) is given as “approximately 80%”.
